The subject of assay [1] is normal bladder activity (frequency of reflex bladder contractions). As to the kind of experiment: Epidural infusion of baclofen in a rat model of bladder pain, intravesical saline infusion (normal bladder activity). It counts as in vivo. The following applies: female rat, epidural infusion 10 μg/day. Here is the method: FIG. 1 is a graphic representation of epidural infusion of baclofen in rats treated with an intravesical infusion of saline. Baseline bladder activity was measured before epidural drug treatment as described in Example 4. The columns and error bars represent the mean and SEM values of 10 rats per group. Asterisks indicate statistically significant dose effects compared to baseline as determined by post-hoc Dunnett Multiple Comparison Test.
(§1) An animal model that has been used frequently to study pelvic pain conditions is a rat model of bladder pain. In this model, a female rat was lightly anesthetized with isoflurane and a transurethral catheter was placed into the bladder. The catheter was connected to a pressure transducer so that the pressure within the bladder could be continuously monitored and recorded over time. Fluid was continuously infused into the bladder using a syringe pump at a rate of 0.1 mL/min to cause the bladder to contract repeatedly each time it became full. This is referred to as a volume-evoked micturition reflex or contraction. A repeated series of bladder contractions (pressure spikes) over time was collected using this method. To mimic normal bladder activity, 0.9% saline was infused into the bladder; to mimic painful bladder activity, a dilute solution of acetic acid (0.5%) was infused into the bladder. […]

Assay [2] relates to acetic acid induced bladder hypermotility (frequency of bladder contraction reflexes). As to the kind of experiment: Epidural infusion of baclofen in a rat model of bladder pain, intravesical acetic acid infusion (painful bladder activity). Particulars: female rat, epidural infusion 10 μg/day. It counts as in vivo. Here is the method:
FIG. 2 is a graphic representation of epidural infusion of baclofen in rats treated with an intravesical infusion of acetic acid as described in Example 4. Baseline bladder activity was measured before epidural drug treatment. The columns and error bars represent the mean and SEM values of 10 rats per group. Asterisks indicate statistically significant dose effects compared to baseline as determined by post-hoc Dunnett Multiple Comparison Test.
as §1, with “contraction.” for “contraction. A repeated series of bladder contractions (pressure spikes) over time was collected using this method. To mimic normal bladder activity, 0.9% saline was infused into the bladder; to mimic painful bladder activity, a dilute solution of acetic acid (0.5%) was infused into the bladder.”
In order to evaluate the effects of epidurally administered analgesics on normal and painful bladder activity (frequency of reflex bladder contractions), test drugs were continuously administered via an epidural catheter with the tip placed in the mid-lumbar epidural space. […] In the experiments depicted in FIGS. 1 and 2, the baseline bladder activity was measured before implanting the epidural infusion system, the infusion system was implanted on day 0 and cystometrograms were recorded on three consecutive days during which baclofen (10 μg/day) was infused into the lumbar epidural space.
Baclofen at 10 μg/day reduced acetic acid induced bladder hypermotility by approximately 3 fold on day 3. The frequency of bladder contraction observed during acetic acid infusion and epidural baclofen administration was similar to the baseline bladder activity measured during saline infusion (0.195±0.047 day 3 acetic acid and epidural baclofen vs 0.193±0.035 baseline saline).

For `NCC(CC(=O)O)c1ccc(Cl)cc1` (centres unmarked) [baclofen, 4-amino-3-(4-chlorophenyl)butanoic acid], the “effects on normal bladder activity measured during saline infusion” value in assay [1] (days 1 and 2, vs baseline) was “minimal effects”. Moreover, the “contraction rate relative to the baseline reflex contraction rate” value in assay [1] (saline infusion, day three) is “statistically significant reductions”. For the same compound, the “frequency of bladder contraction reflexes during acetic acid infusion” value in assay [2] (0.5% acetic acid, all three days, vs baseline) is “significantly reduced”. The “reduction of acetic acid induced bladder hypermotility” value in assay [2] (day 3) is listed as “approximately 3 fold”. The “frequency of bladder contraction during acetic acid infusion and epidural baclofen administration” value in assay [2] (day 3, mean ± SEM, 10 rats per group) is given as 0.195±0.047 reflexes per min.

These data come from patent US8475823B2, “Baclofen formulation in a polyorthoester carrier” (Medtronic, Inc., priority 2008, dated 2013).
